The values below come from ChEMBL document CHEMBL3217700, “Synthesis and SAR studies of benzimidazole derivatives as melanin concentrating hormone receptor 1 (MCHR1) antagonists: Focus to detune hERG inhibition” (Medchemcomm, 2011).

Data set [1] concerns the target T1, Melanin-concentrating hormone receptor 1 (Homo sapiens, UniProt Q99705). Briefly: Displacement of [125I]MCH from human recombinant MCHR1 expressed CHO-K1 cell membrane by SPA-YSI assay. The data set is classed as cell membranes.
Data set [2] has as its target T1, Melanin-concentrating hormone receptor 1. Kind of data set: Antagonist activity at MCHR1 (unknown origin) assessed as IP3 levels by cell-based functional assay.
A further data set deals with hERG (KCNH2) (Homo sapiens, UniProt Q12809). Briefly: Inhibition of human ERG expressed in HEK293 cells at 1 uM after 5 mins by patch clamp assay. The data set is classed as cell-based. Conditions: HEK293 cells that express hERG.
Chain of hERG (KCNH2) (Q12809 whole entry): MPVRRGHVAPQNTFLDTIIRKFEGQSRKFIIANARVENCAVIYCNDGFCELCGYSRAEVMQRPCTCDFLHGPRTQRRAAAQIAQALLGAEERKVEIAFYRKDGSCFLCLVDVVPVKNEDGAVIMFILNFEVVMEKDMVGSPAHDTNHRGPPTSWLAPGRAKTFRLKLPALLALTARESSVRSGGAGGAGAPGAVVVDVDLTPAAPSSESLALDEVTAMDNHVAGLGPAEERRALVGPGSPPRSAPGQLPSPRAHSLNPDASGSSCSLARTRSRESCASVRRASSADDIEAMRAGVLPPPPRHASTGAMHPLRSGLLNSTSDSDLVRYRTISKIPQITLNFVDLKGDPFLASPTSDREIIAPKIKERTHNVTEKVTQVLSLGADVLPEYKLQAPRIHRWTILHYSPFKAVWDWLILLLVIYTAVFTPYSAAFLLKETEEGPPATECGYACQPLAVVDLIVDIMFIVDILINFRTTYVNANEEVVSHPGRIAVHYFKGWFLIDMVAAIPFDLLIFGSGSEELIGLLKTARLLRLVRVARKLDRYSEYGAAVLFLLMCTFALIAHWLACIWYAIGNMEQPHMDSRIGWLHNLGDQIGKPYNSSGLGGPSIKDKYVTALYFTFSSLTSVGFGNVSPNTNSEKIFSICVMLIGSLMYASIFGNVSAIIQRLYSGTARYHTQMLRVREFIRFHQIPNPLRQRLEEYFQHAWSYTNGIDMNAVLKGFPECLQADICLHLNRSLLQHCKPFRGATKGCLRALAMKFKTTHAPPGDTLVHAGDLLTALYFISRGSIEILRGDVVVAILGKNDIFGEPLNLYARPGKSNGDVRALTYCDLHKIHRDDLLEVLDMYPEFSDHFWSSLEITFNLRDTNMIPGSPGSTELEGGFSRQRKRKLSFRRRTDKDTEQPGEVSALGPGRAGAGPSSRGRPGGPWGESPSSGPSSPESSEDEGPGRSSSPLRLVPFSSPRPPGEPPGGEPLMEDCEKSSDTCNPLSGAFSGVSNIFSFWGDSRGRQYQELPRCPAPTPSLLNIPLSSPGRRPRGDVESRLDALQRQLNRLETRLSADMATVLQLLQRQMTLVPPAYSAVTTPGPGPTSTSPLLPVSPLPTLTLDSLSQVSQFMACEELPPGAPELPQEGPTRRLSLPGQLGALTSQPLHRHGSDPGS
The next data set is filed under the species Homo sapiens. Briefly: Selectivity ratio of IC50 for human ERG to IC50 for MCHR1 (unknown origin) assessed as IP3 levels by cell-based functional assay.
In data set [3] the target is Voltage-gated inwardly rectifying potassium channel KCNH2 (Homo sapiens, UniProt Q12809). Briefly: Inhibition of human ERG expressed in HEK293 cells after 5 mins by patch clamp assay. The data set is classed as cell-based.
Chain of Voltage-gated inwardly rectifying potassium channel KCNH2 (Q12809 whole entry): as above

T1 sequence (Q99705 whole entry): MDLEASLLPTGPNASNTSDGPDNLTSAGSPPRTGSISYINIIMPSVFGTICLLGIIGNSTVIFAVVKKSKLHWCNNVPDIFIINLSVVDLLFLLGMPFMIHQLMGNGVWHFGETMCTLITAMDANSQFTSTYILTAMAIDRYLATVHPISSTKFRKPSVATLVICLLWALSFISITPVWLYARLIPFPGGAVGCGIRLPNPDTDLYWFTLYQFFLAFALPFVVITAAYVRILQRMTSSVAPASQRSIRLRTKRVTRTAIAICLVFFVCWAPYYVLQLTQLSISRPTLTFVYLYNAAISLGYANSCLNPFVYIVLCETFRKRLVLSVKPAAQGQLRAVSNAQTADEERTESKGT

For the compound `CC(=O)Nc1cccc(C2CCN(Cc3ccc(C(=O)c4nc5ccccc5n4-c4ccc(C#N)cc4)cc3)CC2)c1`, the values for the IC50 in data set [1] and in data set [2] were 172 nM and 260 nM, respectively.

Turning to `CC(=O)Nc1cccc(C2CCN(C(C)c3ccc(C(=O)c4nc5ccccc5n4-c4ccc(F)cc4)cc3)CC2)c1` (stereo unspecified), the IC50 in data set [1] worked out at 150 nM; in data set [2], 259 nM.

The compound `CC(=O)Nc1cccc(C2CCN(Cc3ccc(C(=O)c4nc5cnccc5n4-c4ccc(F)cc4)cc3)CC2)c1` returned an inhibition at 5 min, 1 µM on hERG (KCNH2) of 36%. Also, the figures for the IC50 in data set [1] and in data set [2] were 12 nM and 59 nM, respectively.

Regarding `CC(=O)Nc1cccc(C2CCN(Cc3ccc(C(=O)c4nc5ccccc5n4-c4ccc(F)cc4)cc3F)CC2)c1`, the IC50 worked out at 46 nM in data set [1] and 80 nM in data set [2].

Turning to `CC(=O)Nc1cccc(C2CCN(Cc3ccc(C(=O)c4nc5ccccc5n4-c4ccc(F)cc4)cn3)CC2)c1`, the inhibition at 5 min, 1 µM against hERG (KCNH2) is 27%. For the same compound, the IC50 in data set [1] turned out to be 27 nM; in data set [2] it was 66 nM.

Turning to `CC(=O)Nc1cccc(C2CCN(Cc3ccc(C(=O)c4nc(C)c(C)n4-c4ccc(F)cc4)cc3)CC2)c1`, in the data set listed under Homo sapiens, the Ratio IC50 was found to be 18. Further, the results for the IC50 in data set [3], in data set [1] and in data set [2] were 1700 nM, 22 nM and 96 nM, respectively.

For the compound `CC(=O)Nc1cccc(C2CCN(CCCCc3nc4ccccc4n3-c3ccc(F)cc3)CC2)c1`, the Ratio IC50 in the data set filed under Homo sapiens was 10.

As to `CC(=O)Nc1cccc(C2CCN(Cc3ccc(C(=O)c4nc5ccccc5n4C(C)C)cc3)CC2)c1`, the IC50 in data set [1] was found to be 138 nM; in data set [2] it was 131 nM.

Consider `CC(=O)Nc1cccc(C2CCN(Cc3ccc(C(=O)c4nc5ccccc5n4C)cc3)CC2)c1`, for which the figures for the IC50 in data set [1] and in data set [2] were 289 nM and 817 nM, respectively.

Consider `CC(=O)Nc1cccc(C2CCN(Cc3ccc(C(=O)c4nc5ccccc5n4-c4ccc(F)cc4)cc3)CC2)c1`, for which the IC50 in data set [1] was found to be 11 nM; in data set [2], 15 nM.

As to `CC(=O)Nc1cccc(C2CCN(Cc3ccc(C(=O)c4nc5ccccc5n4C4CCOCC4)cc3)CC2)c1`, in the data set listed under Homo sapiens, the Ratio IC50 was 24. Besides, the figures for the 50% inhibitory concentration (IC50) in data set [3], in data set [1] and in data set [2] were 1200 nM, 55 nM and 47 nM, respectively.

At hERG (KCNH2), `CC(=O)Nc1cccc(C2CCN(Cc3ccc(Cc4nc5ccccc5n4-c4ccc(F)cc4)cc3C#N)CC2)c1` had an inhibition at 5 min, 1 µM of 42%. Besides, the Ratio IC50 in the data set listed under Homo sapiens came to 131. Moreover, the IC50 is 10 nM in data set [1] and 3 nM in data set [2].

On hERG (KCNH2), `CC(=O)Nc1cccc(C2CCN(Cc3ccc(Cc4nc5ccccc5n4-c4ccc(F)cc4)cc3)CC2)c1` displayed an inhibition at 5 min, 1 µM of 98%. Besides, the IC50 in data set [1] stood at 0.9 nM; in data set [2], 3 nM.

Consider `CC(=O)Nc1cccc(C2CCN(CCCNc3nc4ccccc4n3-c3ccc(F)cc3)CC2)c1`, for which the Ratio IC50 in the data set filed under Homo sapiens turned out to be 3.

On hERG (KCNH2), `CC(=O)Nc1cccc(C2CCN(Cc3ccc(C(=O)c4nc5cccnc5n4-c4ccc(F)cc4)cc3)CC2)c1` showed an inhibition at 5 min, 1 µM of 58%. For the same compound, the IC50 amounted to 14 nM in data set [1] and 53 nM in data set [2].

For the compound `CC(=O)Nc1cccc(C2CCN(Cc3ccc(C(=O)c4nc5ccccc5n4-c4ccc(F)cc4)cc3C#N)CC2)c1`, the IC50 was 651 nM in data set [1] and 385 nM in data set [2].

`CC(=O)Nc1cccc(C2CCN(Cc3ccc(C(=O)c4nc5ccccc5n4-c4ccc(F)cc4)nc3)CC2)c1` yielded an inhibition at 5 min, 1 µM against hERG (KCNH2) of 37%. Moreover, the IC50 amounted to 11 nM in data set [1] and 37 nM in data set [2].

Consider `CC(=O)Nc1cccc(C2CCN(Cc3ccc(C(=O)c4nc5ccccc5n4C4CC4)cc3)CC2)c1`, for which the figures for the IC50 in data set [1] and in data set [2] were 271 nM and 412 nM, respectively.

`CC(=O)Nc1cccc(C2CCN(Cc3ccc(Oc4nc5ccccc5n4-c4ccc(F)cc4)cc3)CC2)c1` displayed an inhibition at 5 min, 1 µM against hERG (KCNH2) of 80%. In addition, the results for the IC50 in data set [1] and in data set [2] were 8 nM and 53 nM, respectively.

For `CC(=O)Nc1cccc(C2CCN(Cc3ccc(C(=O)c4nc5ccccc5n4-c4ccc(C(F)(F)F)cc4)cc3)CC2)c1`, the IC50 in data set [1] was 1000 nM; in data set [2], 1370 nM.

Consider `CC(=O)Nc1cccc(C2CCN(Cc3ccc(C(=O)c4nc5ccccc5n4-c4ccc(Cl)cc4)cc3)CC2)c1`, for which, in the data set filed under Homo sapiens, the Ratio IC50 is 26. In addition, the results for the IC50 in data set [3], in data set [1] and in data set [2] were 1700 nM, 34 nM and 217 nM, respectively.

As for `CC(=O)Nc1cccc(C2CCN(Cc3ccc(C(=O)c4nc5ccccc5n4-c4ccc(F)cc4)cc3Cl)CC2)c1`, the IC50 in data set [1] was determined as 184 nM; in data set [2], 336 nM.

In turn, `CC(=O)Nc1cccc(C2CCN(Cc3ccc(C(=O)c4nc5c(F)cc(F)cc5n4-c4ccc(F)cc4)cc3)CC2)c1` came in with an inhibition at 5 min, 1 µM against hERG (KCNH2) of 70%. In addition, the IC50 was 15 nM in data set [1] and 43 nM in data set [2].

Take `CC(=O)Nc1cccc(C2CCN(Cc3ccc(C(=O)c4nc5ccccc5n4-c4ccc(F)cc4)cc3C(F)(F)F)CC2)c1`: the IC50 is 3250 nM in data set [1] and more than 10000 nM in data set [2].
